From patent publication US9890168B2, “2,4-disubstituted 7H-pyrrolo[2,3-d]pyrimidine derivative, preparation method and medicinal use thereof” (Shanghai Haiyan Pharmaceutical Technology Co., Ltd., priority 2014, dated 2018)
Structures can show the parent of a compound that is named as a salt.

How the values were obtained:
H1975 cells = assay: Cell inhibitory activity by MTT assay, H1975 cells; assay type: cell-based; conditions: for IC50: cell growth, MTT assay, 72 hours; for Selective inhibitory activity against cell growth [IC50 (A431 cell)/IC50 (H1975 cell)]: ratio of MTT IC50 values
NIH3T3 cells = assay: Toxicity test on NIH3T3 cells by MTT assay; assay type: cell-based
A431 cells = assay: Cell inhibitory activity by MTT assay, A431 cells; assay type: cell-based; conditions: 72 hours
[1] = molecular target: EGFR phosphorylation in H1975 (EGFR T790M mutant) cells (Homo sapiens (Human), UniProt P00533, L858R/T790M); assay: Inhibition of EGFR phosphorylation in H1975 cells (ELISA); assay type: cell-based; conditions: for IC50: EGFR phosphorylation, ELISA, 1 h compound treatment, read-out: H1975 cell (IC50/μM); for Selective inhibitory activity against targets at the cell level [IC50 (A431 cell)/IC50 (H1975 cell)]: ratio of ELISA IC50 values
wild-type EGFR kinase = wild-type EGFR kinase (Homo sapiens (Human), UniProt P00533); assay: z'-lyte assay of inhibition activity on wild-type EGFR kinase; assay type: biochemical; conditions: 10 μM ATP, 0.8 ng/μL kinase, read-out: EGFR WT (IC50/μM)
[2] = molecular target: EGFR phosphorylation in A431 (EGFR wild-type) cells (Homo sapiens (Human), UniProt P00533); assay: Inhibition of EGFR phosphorylation in A431 cells (ELISA); assay type: cell-based; conditions: 1 h compound treatment, EGF stimulation, read-out: A431 cell (IC50/μM)
[3] = system: T790M mutant cell line H1975; conditions: background statement; cited from earlier work
[4] = Homo sapiens, A-431, cell growth

EGFR phosphorylation in H1975 (EGFR T790M mutant) cells, sequence (P00533 25-1210 T790M/L858R): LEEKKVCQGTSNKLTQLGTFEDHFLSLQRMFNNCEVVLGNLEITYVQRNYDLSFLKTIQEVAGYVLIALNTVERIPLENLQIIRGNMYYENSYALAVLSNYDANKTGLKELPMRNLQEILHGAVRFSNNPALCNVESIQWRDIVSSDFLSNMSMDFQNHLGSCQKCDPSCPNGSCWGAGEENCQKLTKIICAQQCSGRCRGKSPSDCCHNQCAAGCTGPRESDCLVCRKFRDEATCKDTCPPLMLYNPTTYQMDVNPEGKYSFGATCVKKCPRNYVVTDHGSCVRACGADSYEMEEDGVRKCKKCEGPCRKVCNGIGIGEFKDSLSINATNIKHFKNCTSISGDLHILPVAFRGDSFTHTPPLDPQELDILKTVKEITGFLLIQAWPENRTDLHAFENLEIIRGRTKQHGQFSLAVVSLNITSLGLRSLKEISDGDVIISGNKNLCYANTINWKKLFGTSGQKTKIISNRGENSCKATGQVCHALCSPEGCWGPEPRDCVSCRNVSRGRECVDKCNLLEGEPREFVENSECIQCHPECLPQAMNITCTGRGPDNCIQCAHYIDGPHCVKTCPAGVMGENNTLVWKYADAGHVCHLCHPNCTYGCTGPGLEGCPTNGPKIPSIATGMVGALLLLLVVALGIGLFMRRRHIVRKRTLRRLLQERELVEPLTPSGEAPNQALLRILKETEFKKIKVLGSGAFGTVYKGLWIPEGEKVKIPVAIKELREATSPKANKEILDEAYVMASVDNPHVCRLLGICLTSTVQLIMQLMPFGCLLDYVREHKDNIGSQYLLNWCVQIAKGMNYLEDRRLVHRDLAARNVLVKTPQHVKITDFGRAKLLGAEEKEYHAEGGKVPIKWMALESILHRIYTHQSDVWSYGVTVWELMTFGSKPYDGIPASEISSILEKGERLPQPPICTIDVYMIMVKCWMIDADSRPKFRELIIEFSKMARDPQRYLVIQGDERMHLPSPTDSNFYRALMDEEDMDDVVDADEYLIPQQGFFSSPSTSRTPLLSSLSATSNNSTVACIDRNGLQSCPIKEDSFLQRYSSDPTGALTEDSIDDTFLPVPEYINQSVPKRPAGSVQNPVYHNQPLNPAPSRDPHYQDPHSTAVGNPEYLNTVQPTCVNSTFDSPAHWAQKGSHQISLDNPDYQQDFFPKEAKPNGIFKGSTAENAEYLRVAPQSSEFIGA
wild-type EGFR kinase, sequence (P00533 25-1210): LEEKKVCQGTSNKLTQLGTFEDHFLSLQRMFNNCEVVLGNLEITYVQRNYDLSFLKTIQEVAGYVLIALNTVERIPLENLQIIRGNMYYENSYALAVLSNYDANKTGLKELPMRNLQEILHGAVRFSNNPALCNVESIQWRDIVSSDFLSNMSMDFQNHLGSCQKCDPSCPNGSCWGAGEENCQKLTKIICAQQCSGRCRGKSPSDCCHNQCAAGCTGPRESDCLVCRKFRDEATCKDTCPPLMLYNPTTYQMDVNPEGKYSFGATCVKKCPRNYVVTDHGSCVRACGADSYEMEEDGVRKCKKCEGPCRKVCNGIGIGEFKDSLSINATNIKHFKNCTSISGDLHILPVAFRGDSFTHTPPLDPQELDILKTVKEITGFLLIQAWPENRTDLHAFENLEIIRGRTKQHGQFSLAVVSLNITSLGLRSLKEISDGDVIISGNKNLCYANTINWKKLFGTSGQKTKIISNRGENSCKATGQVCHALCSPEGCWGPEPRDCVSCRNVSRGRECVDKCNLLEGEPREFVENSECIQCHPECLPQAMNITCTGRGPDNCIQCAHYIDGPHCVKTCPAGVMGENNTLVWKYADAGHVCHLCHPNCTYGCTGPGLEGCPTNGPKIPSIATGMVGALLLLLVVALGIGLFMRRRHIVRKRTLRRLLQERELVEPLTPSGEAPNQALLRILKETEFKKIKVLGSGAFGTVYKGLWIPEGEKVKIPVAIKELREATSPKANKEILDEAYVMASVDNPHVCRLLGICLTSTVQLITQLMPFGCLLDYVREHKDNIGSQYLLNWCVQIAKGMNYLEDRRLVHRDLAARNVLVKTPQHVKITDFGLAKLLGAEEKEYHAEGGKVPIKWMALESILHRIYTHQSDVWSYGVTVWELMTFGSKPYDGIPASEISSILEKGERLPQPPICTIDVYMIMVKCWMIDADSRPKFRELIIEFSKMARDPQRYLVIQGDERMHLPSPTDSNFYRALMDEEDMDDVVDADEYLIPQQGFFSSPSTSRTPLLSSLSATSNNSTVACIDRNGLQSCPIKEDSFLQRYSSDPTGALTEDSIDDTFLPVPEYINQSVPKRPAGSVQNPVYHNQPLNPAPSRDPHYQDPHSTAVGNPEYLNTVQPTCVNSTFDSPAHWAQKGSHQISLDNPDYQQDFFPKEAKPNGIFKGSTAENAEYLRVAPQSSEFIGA
EGFR phosphorylation in A431 (EGFR wild-type) cells, sequence (P00533 25-1210): as above

Row | Structure (SMILES) | IC50 (H1975 cells; Homo sapiens, NCI-H1975) | IC50 (A431 cells; [4]) | IC50 [1] | Selective inhibitory activity against targets at the cell level [IC50 (A431 cell)/IC50 (H1975 cell)] [1] | IC50 (wild-type EGFR kinase) | Selective inhibitory activity against cell growth [IC50 (A431 cell)/IC50 (H1975 cell)] (H1975 cells) | IC50 [2] | IC50 (NIH3T3 cells; Mus musculus, NIH3T3, 72 hours) | IC50 (A431 cells; cell growth) | IC50 (H1975 cells) | IC50 (NIH3T3 cells; 72 hours) | activity in the T790M mutant cell line H1975 [3]
1 | CN(C)C/C=C/C(=O)Nc1cc2c(Nc3ccc(F)c(Cl)c3)ncnc2cc1O[C@H]1CCOC1 [BIBW2992, reference compound] | 0.088 µM | – | – | – | – | – | – | 2.75 µM | – | – | – | –
2 | C=CC(=O)Nc1cc(Nc2nc(-c3cnn(C)c3)c3cc[nH]c3n2)c(OC)cc1N(C)CCN(C)C [Compound 1, N-(2-((2-(dimethylamino)ethyl)(methyl)amino)-4-methoxy-5-(4(1-methyl-1H-pyrazol-4-yl)-7H-pyrrolo[2,3-d]pyrimidn-2-ylamino)phenyl)acrylamide] | 0.043 µM | 1.56 µM | 0.112 µM | 32.7 | 0.393 µM | 36.3 | 3.67 µM | > 10 µM | – | – | – | –
3 | C=CC(=O)Nc1cc(Nc2nc(N3CCOCC3)c3cc[nH]c3n2)c(OC)cc1N(C)CCN(C)C [Compound 2, N-(2-((2-(dimethylamino)ethyl)(methyl)amino)-4-methoxy-5-(4-morpholino-7H-pyrrolo[2,3-d]pyrimidin-2-ylamino)phenyl)acrylamide] | 0.143 µM | 4.01 µM | 0.322 µM | 31 | > 1 µM | 28 | > 10 µM | > 10 µM | – | – | – | –
4 | C=CC(=O)Nc1cc(Nc2nc(OC3CN(S(C)(=O)=O)C3)c3cc[nH]c3n2)c(OC)cc1N(C)CCN(C)C [Compound 3, N-(2-((2-(dimethylamino)ethyl)(methyl)amino)-4-methoxy-5-(4-(1-(methylsulfonyl)azetidin-3-yloxy)-7H-pyrrolo[2,3-d]pyrimidin-2-ylamino)phenyl)acryl amide] | – | – | 0.032 µM | 26.9 | 0.088 µM | 101 | 0.86 µM | – | 2.93 µM | 0.029 µM | > 10 µM | –
5 | C=CC(=O)Nc1cc(Nc2nc(-c3cnc4c(ccn4C)c3)c3cc[nH]c3n2)c(OC)cc1N(C)CCN(C)C [Compound 4, N-(2-((2-(dimethylamino)ethyl)(methyl)amino)-4-methoxy-5-(4-(1-methyl-1H-pyrrolo[2,3-b]pyridin-5-yl)-7H-pyrrolo[2,3-d]pyrimidin-2-ylamino)phenyl)acrylamide] | 0.029 µM | 1.12 µM | 0.015 µM | 17 | 0.039 µM | 38.7 | 0.254 µM | 2.09 µM | – | – | – | –
6 | C=CC(=O)Nc1cc(Nc2nc(-c3cn(C)c4ccccc34)c3cc[nH]c3n2)c(OC)cc1N(C)CCN(C)C [Compound 5, N-(2-((2-(dimethylamino)ethyl)(methyl)amino)-4-methoxy-5-(4-(1-methyl-1H-indol-3-yl)-7H-pyrrolo[2,3-d]pyrimidin-2-ylamino)phenyl)acrylamide] | 0.009 µM | 0.308 µM | 0.016 µM | 7.4 | 0.015 µM | 34.2 | 0.119 µM | 2.63 µM | – | – | – | –
7 | C=CC(=O)Nc1cc(Nc2nc(-c3cccnc3)c3cc[nH]c3n2)c(OC)cc1N(C)CCN(C)C [Compound 6, N-(2-((2-(dimethylamino)ethyl)(methyl)amino)-4-methoxy-5-(4-(pyridin-3-yl)-7H-pyrrolo[2,3-d]pyrimidin-2ylamino)phenyl)acrylamide] | 0.079 µM | 1.8 µM | 0.096 µM | 17.4 | 0.347 µM | 22.8 | 1.67 µM | 5.1 µM | – | – | – | –
8 | C=CC(=O)Nc1cc(Nc2nc(-c3cnn(C)c3)c3cc[nH]c3n2)c(OC)cc1N1CC(N(C)C)C1 [Compound 11, N-(2-(3-(dimethylamino)azetidin-1-yl)-4-methoxy-5-(4-(1-methyl-1H-pyrazol-4-yl)-7H-pyrrolo[2,3-d]pyrimidin-2-ylamino)phenyl)acrylamide Formate] | – | – | – | – | > 1 µM | – | – | – | – | – | – | –
9 | C#Cc1cccc(Nc2ncnc3cc(OCCOC)c(OCCOC)cc23)c1 [erlotinib] | – | – | – | – | – | – | – | – | – | – | – | greater than 3 uM
10 | COc1cc2ncnc(Nc3ccc(F)c(Cl)c3)c2cc1OCCCN1CCOCC1 [gefitinib] | – | – | – | – | – | – | – | – | – | – | – | greater than 3 uM

Continued, in another order:

Row | IC50 (H1975 cells; Homo sapiens, NCI-H1975) | IC50 (A431 cells; [4]) | IC50 [1] | Selective inhibitory activity against targets at the cell level [IC50 (A431 cell)/IC50 (H1975 cell)] [1] | IC50 (wild-type EGFR kinase) | Selective inhibitory activity against cell growth [IC50 (A431 cell)/IC50 (H1975 cell)] (H1975 cells) | IC50 [2] | Structure (SMILES) | IC50 (NIH3T3 cells; Mus musculus, NIH3T3, 72 hours) | IC50 (A431 cells; cell growth) | IC50 (H1975 cells) | IC50 (NIH3T3 cells; 72 hours) | activity in the T790M mutant cell line H1975 [3]
11 | 0.225 µM | 1.69 µM | 0.204 µM | 9.2 | 0.315 µM | 7.5 | 1.87 µM | C=CC(=O)Nc1cc(Nc2nc(-c3ccccc3)c3cc[nH]c3n2)c(OC)cc1N(C)CCN(C)C [Compound 7, N-(2-((2-(dimethylamino)ethyl)(methyl)amino)-4-methoxy-5-(4-phenyl-7H-pyrrolo[2,3-d]pyrimidin-2-ylamino)phenyl)acrylamide] | 2.42 µM | – | – | – | –
12 | 0.3 µM | 4.34 µM | 0.384 µM | >26 | > 1 µM | 14.5 | > 10 µM | C=CC(=O)Nc1cc(Nc2nc(-c3cnn(C)c3)c3cc[nH]c3n2)c(OC)cc1N1CCC(N(C)C)CC1 [Compound 9, N-(2-(4-(dimethylamino)piperidin-1-yl)-4-methoxy-5-(4-(1-methyl-1H-pyrazol-4-yl)-7H-pyrrolo[2,3-D]pyrimidin-2-ylamino)phenyl)acrylamide] | > 10 µM | – | – | – | –
13 | 0.112 µM | 3.8 µM | 0.166 µM | 54.1 | – | 34 | 8.98 µM | C=CC(=O)Nc1cc(Nc2nc(-c3cnn(C)c3)c3cc[nH]c3n2)c(OC)cc1OCCN(C)C [Compound 10, N-(2-(2-(dimethylamino)etboxy)-4-methoxy-5-(4-(1-methyl-1H-pyrazol-4-yl)-7H-pyrrolo[2,3-d]pyrimidin-2-ylamino)phenyl)acrylamide] | > 10 µM | – | – | – | –
14 | – | – | – | – | > 1 µM | – | – | C=CC(=O)Nc1cc(Nc2nc(-c3cnn(C)c3)c3cc[nH]c3n2)c(OC)cc1N1CCN(C)CC1 [Compound 12, N-(4-methoxy-5-(4-(1-methyl-1H-pyrazol-4-yl)-7H-pyrrolo[2,3-d]pyrimidin-2-ylamino)-2-(4-methylpiperazin-1-yl)phenyl)acrylamide] | – | – | – | – | –
15 | 0.531 µM | 3.04 µM | – | – | – | – | – | C=CC(=O)Nc1cc(Nc2nc(-c3cnn(C)c3)c3c(Cl)c[nH]c3n2)c(OC)cc1N1CCC(N(C)C)CC1 [Compound 13, N-(5-(5-chloro-4-(1-methyl-1H-pyrazol-4-yl)-7H-pyrrolo[2,3-d]pyrimidin-2-ylamino)-2-(4(dimethylamino)piperidin-1-yl)-4-methoxyphenyl)acrylamide] | > 10 µM | – | – | – | –
